The values that follow come from PMC10363981, “Optimizing the enzymatic release of MMAE from isoDGR-based small molecule drug conjugate by incorporation of a GPLG-PABC enzymatically cleavable linker” (Frontiers in Pharmacology, 2023).

The structures appear in SMILES notation.

The nature of data set [1]: Enzymatic cleavage assay with lysosomal homogenate. In kind it is in vitro ADME. To be noted: rat liver lysosomal homogenate, conjugate:lysosomal protein 1:10 (w/w), 0.2 M NaOAc pH 5.05, 37 °C, UPLC-HRMS. The method, then:
The enzymatically cleavage test was performed by incubating the conjugate 2 with rat liver lysosomal homogenate and analyzed by LC–MS. In particular, the conjugate 2 (2.35 μg/μL in DMSO, 5 μL) was diluted with 0.2 M NaOAc solution (pH 5.05, 495 μL) to 0.024 μg/μL. The lysosomal homogenate was prepared from rat liver ([Gomena et al., 2023]), and contained proteins in 71.76 μg/μL concentration. 8.6 μL of this lysosomal homogenate was diluted with 66.4 μL 0.2 M NaOAc solution (pH 5.05), to have a protein concentration of 8.27 μg/μL. To start the assay, 15 μL lysosome homogenate (8.27 μg/μL) was added to 500 μL conjugate solution (0.025 μg/μL), to have a conjugate: lysosomal protein = 1:10 (w/w) ratio. Furthermore, a control reaction mixture was prepared, containing the conjugate (2.35 μg/μL in DMSO, 5 μL) and 510 μL of 0.2 M NaOAc solution (pH 5.05). The samples were stirred at 300 rpm, 37°C and 50 µL aliquots were taken out at 0 min, 15 min, 30 min, 1 h, 2 h, 6 h, 24 h, and 72 h. The enzymatic activity was quenched by adding 5 μL formic acid (FA) to the samples. After this procedure, samples were frozen immediately at −25°C. Control samples were collected at 0 min, 1 h, 6 h, 24 h and 72 h. The composition of the samples was determined by HPLC-MS. […] LC-MS data were analyzed by XcaliburTM software (Thermo Fisher Scientific).

Data set [2] has as its system U87MG human malignant glioma cells. The data set can be described thus: In vitro antiproliferative activity, "kiss-and-run" washout experiment (30 min + washout + up to 72 h). In kind it is cell-based. The method, then: (§1) U87MG human malignant glioma, SK-MEL-28 human melanoma, SK-OV-3 human ovarian cancer, and A549 human lung cancer cell lines were purchased from ATCC. The cells were cultured in Dulbecco’s Modified Eagle’s Medium (DMEM; Biosera, Nuaille, France), supplemented with 10% heat-inactivated Fetal Bovine Serum (FBS; Biosera), and with 1% Penicillin/Streptomycin (Biosera). Cells were cultured in sterile T75 flasks with ventilation cap (Sarstedt, Nümbrecht, Germany) at 37 °C in a humidified atmosphere with 5% CO2 in ESCO CelCulture Incubator (ESCO, Friedberg, Germany). Manipulations with the cells were performed in biosafety cabinet (laminar) ESCO Sentinel Gold class II model AC2-4E8 (ESCO).
(§2) After standard trypsinization and harvesting cells by trypsin (Biosera), ethylenediaminetetraacetic acid (EDTA; Biosera) and PBS solution, 6×10^3 cells per well were seeded in serum containing (10%) growth medium to 96-well plates with flat bottom (Eppendorf, Hamburg, Germany), in a 100 μL volume per well, and incubated at 37°C.
(§3) In the wash out experiment, cells were incubated with the compounds (5% serum final) for 30 min, then they were washed out, and additionally incubated in growth medium (5% serum final) up to 72 h. The control wells were treated only with serum free medium (5% serum final).
(§4) For the evaluation of the in vitro antiproliferative activity of compounds, the cell viability was determined by MTT assay (3-(4,5-dimethylthiazol-2-yl)-2,5-diphenyl-tetrazolium bromide) obtained from Duchefa Biochemie (Haarlem, Netherlands).
(§5) 22 µL of MTT solution (5 mg/mL in PBS, 0.5 mg/mL final) was added to each well and after 2 h incubation at 37°C, the supernatant was removed. […] Average background absorbance (DMSO-Ethanol) was subtracted from absorbance values of control and treated wells, and cell viability was determined relative to untreated (control) wells where cell viability was arbitrarily set to 100%. […] The experiments were done in triplicate and each experiment was repeated three times.
(§6) Recently, a new protocol for evaluating the antiproliferative activity and the targeting ability of integrin-ligand based conjugates was developed by the group of Prof. […] In this procedure, which we named “kiss-and-run” experiment, after very short initial contact times (15–30 min) of the toxin with the cells in vitro, the solution is drained, and cells are resuspended in the culture medium for a 72 h incubation. This protocol is aimed at simulating the rapid clearance of the drugs that occurs in vivo in the extracellular tumor environment, thus highlighting the ability of the conjugate to bind the integrin receptor on the cell surface.

Data set [3] deals with SK-OV-3 human ovarian cancer cells. The data set is described as above. It is filed as cell-based. Here is the method: as §1, §2, §3, §4, §5, §6
Data set [4] has as its system A549 human lung cancer cells. Described as above. In kind it is cell-based. Here is the method: as §1, §2, §3, §4, §5, §6
Data set [5] concerns SK-MEL-28 human melanoma cells. Described as above. It is filed as cell-based. Here is the method:
as §1, §2, §3, §4, §5, §6

Setting [6] is: MTT, 30 min treatment, washout, further incubation up to 72 h, 5% serum final.
Setting [7] is: ratio of IC50 of 2 vs MMAE, 30 min + washout + up to 72 h.

A word on the IC50: it is the concentration that gives 50% inhibition. Consider `CC[C@H](C)[C@@H]([C@@H](CC(=O)N1CCC[C@H]1[C@H](OC)[C@@H](C)C(=O)N[C@H](C)[C@@H](O)c1ccccc1)OC)N(C)C(=O)[C@@H](NC(=O)[C@H](C(C)C)N(C)C(=O)OCc1ccc(NC(=O)CNC(=O)[C@H](CC(C)C)NC(=O)[C@@H]2CCCN2C(=O)CNC(=O)CCc2cn(CCOCCOCCOCCOCC(=O)NCc3ccc(CN4C(=O)[C@H]5CC(=O)N[C@H](C(=O)O)CC(=O)NCC(=O)N[C@@H](CCCNC(=N)N)C(=O)NC[C@H]4C(=O)N5)cc3)nn2)cc1)C(C)C` [compound 2, cyclo[DKP-isoDGR]-PEG4-GPLG-PABC-MMAE], for which, in data set [1], the “cleavage of the conjugate in the presence of lysosomal enzymes” value is listed as “rapidly cleaved”. Besides, the “incubation time after which released free MMAE is detectable” value in data set [1] is recorded as not above 15 min. The IC50 is 683 ± 37.1 nM in data set [2] (setting [6]); 198 ± 13.7 nM in data set [3] (setting [6]); 1240 ± 85.2 nM in data set [4] (MTT, 30 min treatment, washout, further incubation up to 72 h, 5% serum final, αVβ3 low expressing line); 938 ± 112 nM in data set [5] (setting [6]). Besides, the “RP [SMDC (2)/MMAE] U87MG” value in data set [2] (setting [7]) worked out at 0.32. In addition, the “RP [SMDC (2)/MMAE] SK-OV-3” value in data set [3] (setting [7]) is 0.97. In addition, the “RP [SMDC (2)/MMAE] A549” value in data set [4] (setting [7]) was determined as 4.67. Also, in data set [5] (setting [7]), the “RP [SMDC (2)/MMAE] SK-MEL-28” value was determined as 0.67.
